Data: US9469878B2, “Methods of treating cancer comprising targeting NQO1” (The Board of Regents of the University of Texas System, priority 2010, dated 2016)

Tests used:
[1] = test system: PARP1 in MCF-7 cells; assay: Western-blot analyses for PARP1 cleavage; type: cell-based, human; details: pre-treatment, 4 μM β-lap 2 h pulse
Procedure: For Western-blot analyses for PARP1 cleavage-MCF-7 cells seeded in 10 cm dishes were treated with 4 μM β-lap in the absence or presence of 1000 U of catalase dissolved in hepes buffer pH 7.4 for 2 h. Cells were then given fresh media and incubated at 37° C. for 24 h. Cells were then harvested in PARP1 lysis buffer. Lysates were resolved in 10% SDS-PAGE and immunoblotted onto PVDF membranes and probed with a monoclonal PARP1 antibody (SC-8007). […] Relative PAR levels were calculated by densitometric analyses by NIH ImageJ using PARP1 loading controls. Measurements were normalized to t=0 levels. Western blots shown are representative of separate experiments performed at least three times.

[2] = target: T1, NQO1 (Homo sapiens, UniProt P15559, P187S); assay: NQO1 enzyme assays using β-lapachone or the standard menadione substrates; type: biochemical; details: single value given
T1 construct: S9 Supernatants were prepared from cells in mid-log to late log phase growth; endogenous in cells; host or cells: cancer cell lines, mostly from a non-small cell lung cancer panel; S9 supernatants
T1 sequence (P15559 whole entry P187S): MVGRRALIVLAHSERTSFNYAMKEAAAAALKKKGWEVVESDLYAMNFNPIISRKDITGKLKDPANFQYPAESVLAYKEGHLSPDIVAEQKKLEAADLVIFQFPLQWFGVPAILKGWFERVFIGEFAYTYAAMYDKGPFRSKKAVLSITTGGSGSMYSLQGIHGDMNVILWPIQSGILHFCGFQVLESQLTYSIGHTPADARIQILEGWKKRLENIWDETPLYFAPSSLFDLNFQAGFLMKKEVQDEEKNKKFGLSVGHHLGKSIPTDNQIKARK
Procedure: (§1) S9 Supernatants were prepared from cells in mid-log to late log phase growth. […] The cell suspensions were sonicated on ice four times, using 10-s pulses, and then centrifuged at 14,000×g for 20 min. The S9 supernatants were aliquoted into microcentrifuge tubes and stored at −80° C. until used. A 1× protease inhibitor cocktail was added to prevent enzyme activity degradation. […] Menadione was used as the electron acceptor. NADH was used as the electron donor.
(§2) NQO1 activity was measured using NADH (200 μM) as the immediate electron donor and menadione (10 μM) as the intermediate electron acceptor. […] Biochem. Biophys. […] NADH: cytochrome b5 reductase was measured using NADH (200 μM) as the electron donor, and […] was measured using NADPH (200 μM) as electron donor (45) in a Beckman DU 640 spectrophotometer (Beckman Coulter, Fullerton, Calif.). Reactions were carried out at 37° C. and were initiated by the addition of S9 supernatants. Varying amounts of supernatants, from 10 to 40 μL, were used to ensure linearity of rates with protein concentration. […] Results shown are the average enzyme activity for three separate cell extractions±S.D. or both values from duplicate experiments.
(§3) Cell lines, mostly from a 5-panel nonsmall cell lung cancer panel from the UT Southwestern SPORE, were assessed for NQO1 polymorphism status and then monitored for NQO1 enzyme assays using β-lapachone or the standard menadione substrates. […] NQO1*2/*2 and *3/*3 polymorphisms were detected from NQO1 *1/*1 wild-type sequences by PCR-RFLP. Genomic DNA was extracted from the cells using Qiagen spin columns. Using previously described oligonucleotide primers, PCR products underwent gel electrophoresis. Final genotyping was determined based on the size and pattern of separated bands diagnostic for *1/*1 (wild-type), or polymorphic *2/*2 or *3/*3 NQO1 polymorphisms.

[3] = target: T2, NQO1 (Homo sapiens, UniProt P15559, R139W); assay: as above; type: biochemical; details: menadione as substrate
T2 construct: S9 Supernatants were prepared from cells in mid-log to late log phase growth; endogenous in cells; host or cells: cancer cell lines, mostly from a non-small cell lung cancer panel (e.g. Calu-3); S9 supernatants
T2 sequence (P15559 whole entry R139W): as the sequence (P15559 whole entry P187S) above, with R139W, S187P counted along it
Procedure: as §1, §2, §3

[4] = test system: NQO1; assay: as above; type: biochemical, human; details: menadione as substrate
Procedure: as §1, §2, §3

[5] = target: NQO1 (Homo sapiens, UniProt P15559); assay: as above; type: biochemical; set-up: S9 Supernatants were prepared from cells in mid-log to late log phase growth; endogenous in cells; host or cells: cancer cell lines, mostly from a non-small cell lung cancer panel; S9 supernatants; details: menadione as substrate
NQO1 (Homo sapiens, UniProt P15559), sequence (P15559 whole entry): as the sequence (P15559 whole entry P187S) above, with S187P counted along it
Procedure: as §1, §2, §3

[6] = test system: Human (shown) or mouse rbs; assay: Hemolysis of red blood cells; type: cell-based; details: rbs incubated with HPβCD alone, HPβCD-β-lap, or β-lap alone in DMSO
Procedure: Human (shown) or mouse rbs were incubated with HPβCD alone or HPβCD-β-lap, or β-lap alone in DMSO.

[7] = test system: PC-3 cells; assay: Intracellular NAD+ and ATP levels; type: cell-based, human; details: pre- and co-treatment, 2 or 3 Gy+3 μM β-lap
Procedure: ATP levels were analyzed from whole-cell extracts using CellTiter-Glo Luminescent Cell Viability Assays (Promega, Madison, Wis.) following the manufacture's instructions. Data were graphed as means±SE from at least three independent experiments in triplicates.

[8] = test system: MDA-MB-231 cells expressing NQO1 (231+); assay: Long term survival assay; type: cell-based, human; details: 231-NQ+ cells
Procedure: Cells were cultured and treated as described above.
Data were expressed as relative survival (treated/control×100%).

[9] = test system: PARP1 in A549 NSCLC cells; assay: PAR formation, Western blot; type: cell-based, human; details: 25 mM, β-lap-treated A549 NSCLC cells
Procedure: Whole-cell extracts were prepared, proteins separated by SDSPAGE, and Western blots developed using SuperSignal® West Pico Chemiluminescent substrate (Thermo Scientific, Rockford, Ill.), and exposed using Autoradiography Film (Denville Scientific Inc., Metuchen, N.J.). An anti-human NQO1 antibody was kindly provided to us by Dr. David Ross (University of Colorado Health Science Center, Denver, Colo.) and used at a 1:5000 dilution overnight at 4° C.

With Z-VAD the “Effect on β-lap-mediated proteolysis of PARP1 and lethality” value [1] was “ineffective”.

For `CC1=CC(=O)c2ccccc2C1=O` [Men, menadione], the “NQO1 activity, Men” value ([2]; H596/NSCLC *2/*2) was <1 ± 0.01 nmol/min/µg, the “NQO1 activity, Men” value ([2]; H2882/NSCLC *2/*2) was <1 ± 0.01 nmol/min/µg and the “NQO1 activity, Men” value ([2]; HCC366/NSCLC *2/*2) was <1 ± 0.01 nmol/min/µg. For the same compound, the “NQO1 activity, Men” value ([2]; MDA-MB-231/Breast *2/*2) was 1 ± 0.05 nmol/min/µg, the “NQO1 activity, Men” value ([2]; MDA-MB-468/Breast *2/*2) was <1 ± 0.01 nmol/min/µg and the “NQO1 activity, Men” value ([3]; Calu-3/NSCLC *3/*3) was 48 ± 3 nmol/min/µg. For the same compound, the “NQO1 activity, Men” value ([3]; H2009/NSCLC *3/*3) was 4.0 ± 1 nmol/min/µg, the “NQO1 activity, Men” value ([3]; HCC1171/NSCLC *3/*3) was 98 ± 17 nmol/min/µg and the “NQO1 activity, Men” value ([3]; T47D/BreastCancer *3/*3) was 32 ± 2 nmol/min/µg. The “NQO1 activity, Men” value ([4]; H292 *1/*2) was 169 +/− 17; ND nMoles/min/μg, the “NQO1 activity, Men” value ([4]; HCC44 *1/*2) was 148 ± 14 nmol/min/µg and the “NQO1 activity, Men” value ([5]; H322 *1/*1) was 1234 +/− 40; ND nMoles/min/μg. For the same compound, the “NQO1 activity, Men” value ([5]; H1648 *1/*1) was 1370 +/− 17; ND nMoles/min/μg, the “NQO1 activity, Men” value ([5]; H1993 *1/*1) was 1170 ± 30 nmol/min/µg and the “NQO1 activity, Men” value ([5]; H2073 *1/*1) was 1340 +/− 20; ND nMoles/min/μg.

For hydroxypropyl-β-cyclodextrin [HPβCD], the Hemolysis [6] was “caused significant hemolyses”.

`O=C1NCCc2c(OCCCCN3CCCCC3)cccc21` [DPQ, 3,4-dihydro-5[4-(1-piperindinyl)butoxy]-1(2H)-isoquinoline] was tested, and the “Effect on synergistic losses of ATP” value [7] was “prevented”.

In the case of `CC(=O)N[C@@H](CS)C(=O)O` [NAC, N-acetyl-L-cysteine], the “Effect on lethal effects of β-lap” value ([8]; pre- and co-treatments) is reported as “protected against the lethal effects of 2 μM β-lap, but not 3 μM”.

`CC(=O)OCOC(=O)CN(CC(=O)OCOC(C)=O)c1ccccc1OCCOc1ccccc1N(CC(=O)OCOC(C)=O)CC(=O)OCOC(C)=O` [BAPTA-AM] was tested, and the “Effect on β-lap-mediated proteolysis of PARP1 and lethality” value [1] was “prevented”.

Catalase was tested, and the “Catalase amount that significantly protected cells from the lethal effects of β-lap” value ([8]; exogenous catalase) was ≥ 500 units.

For `NC(=O)c1cccc(N)c1` [3-aminobenzamide], the “Effect on PAR formation” value [9] was “spares and delays PAR formation”.
